Test results reported in US7858578B2, “Methods of inducing neuronal growth by a Fucose-α(1-2) galactose (fuc-α(1-2) gal) moiety and a lectin” (California Institute of Technology, priority 2004, dated 2010).
Where a SMILES comes first, the peptide text is derived from it. The star is where a group is joined. Cbz = O=C(OCc1ccccc1)*

How the values were obtained:
[1] = system: hippocampal slices; conditions: cited from earlier work
[2] = system: hippocampal neurons; test: Effects of deoxy-galactose sugars on neuronal morphology (anti-tau immunostaining); format: cell-based, rat; conditions: for rescue of 2-dGal effects: 75 mM Gal for 2 days after 15 mM 2-dGal for 2 days
Procedure: Hippocampal neurons were plated on poly-DL-ornithine-coated glass coverslips as described above. After one day in culture, the medium was replaced with fresh medium, and the small molecules (2-dGal, 3-Deoxy-D-Galactose (3-dGal), or D-Galactose (Gal)) were added. A dose-response experiment was initially performed to determine the minimum concentration of 2-dGal needed to elicit an effect. Neurons were treated with varying concentrations of 2-dGal (1, 5, 10, 15, or 30 mM in 25 μL PBS with 475 μL of supplemented Neurobasal medium) for 2 days before immunostaining with anti-tau antibodies as described above.
Cells were treated as above under 4 different conditions: (1) no treatment for 2 days, (2) incubation with 15 mM 2-dGal for 2 days, (3) incubation with 15 mM 2-dGal for 2 days followed by incubation with 75 mM Gal for 2 days, or (4) incubation with 15 mM 3-dGal for 2 days. After adding the small molecules, cultures were incubated at 37° C., 5% CO2, then washed once with PBS, and immunostained with anti-tau antibody as described above.

[3] = system: synapsin I expressed in HeLa cells; test: Synapsin fucosylation and expression in synapsin I-transfected HeLa cells (immunoblotting); format: cell-based; conditions: deoxy sugar for 24 h
Procedure: (§1) FIG. 19. Inhibition of synapsin fucosylation using 2-dGal decreases the expression and half-life of synapsin I. (A) Effects of 2-dGal and 6-dGal on synapsin fucosylation (left panel) and synapsin expression (right panel) levels. Synapsin I-transfected HeLa cells were treated with the indicated amounts of the deoxy sugar for 24 h. Fucosylation and synapsin expression levels were measured by immunoblotting with antibody A46-B/B10 and an anti-synapsin antibody, respectively. […] Synapsin I-transfected HeLa cells were treated with 2-dGal or a vehicle control (PBS), pulse labeled with ^35S-L-cysteine and ^35S-L-methionine as described in Materials and Methods, and chased for the indicated times. ^35S-labeled synapsin levels were measured by autoradiography. (C) Inhibition of the calcium-activated protease calpain using a calpain inhibitor peptide or calpeptin protects synapsin from degradation. […] Synapsin I-transfected HeLa cells were treated with the indicated inhibitors or vehicle control (DMSO, PBS or MeOH) in the presence or absence of 2-dGal for 15 h. Following lysis, the cell extracts were analyzed for synapsin expression levels by immunoblotting.
The effects of 2-dGal on synapsin I expressed in HeLa cells were next investigated. Cell lysates containing equivalent amounts of transfected protein were resolved by SDS-PAGE, and the fucosylation and protein levels of synapsin were measured by immunoblotting, using methods described above.

[4] = system: E18 cortical neurons; test: Expression of synaptic proteins in cultured neurons (Western blotting); format: cell-based; conditions: 15 mM for 3 days, neurons 7 DIV
Procedure: FIG. 20. […] (A) E18 cortical neurons cultured for 7 DIV were treated with 15 mM of 2-dGal or 6-dGal for 3 days. Protein lysates were analyzed by Western blotting using antibodies selective for the indicated proteins. A significant reduction in the expression of synapsin Ib was observed, while other synapse-associated proteins were unaffected by the 2-dGal treatment. (B) Neurite retraction caused by 2-dGal is reduced in synapsin-deficient mice. Neurons from synapsin I-deficient or wild-type mice were cultured for 2 days, treated with 2-dGal for 3 days, and analyzed for mean neurite length.
To examine the effects of 2-dGal on synapsin fucosylation in neurons, neurons were cultured for 7 DIV to allow for adequate expression of synapsin and subsequently treated with 2-dGal or 6-dGal for comparison. Cells were lysed and immunoblotted as described above. […] The expression of other synaptic proteins, including NSF, the synaptic vesicle protein synaptotagmin, the presynaptic plasma membrane protein syntaxin, and the postsynaptic proteins PSD-95, the AMPA receptor GluR1 subunit and spinophilin, was unchanged by the 2-dGal treatment.

[5] = system: binding of antibody A46-B/B10 to bovine synapsin I; test: Competition ELISA; conditions: competitors 0.078-5 mM
Procedure: To gain insight into the structural determinants recognized by antibody A46-B/B10, competition enzyme-linked immunosorbent assay (ELISA) experiments were performed using a series of fucose analogs (FIG. 12 A, B). Purified bovine synapsin Ia/Ib (Ueda, T., et al., J. Biol. Chem., 252:5155-5163 (1977)) was a supplied by Drs. P. Greengard and A. Nairn (The Rockefeller University, New York, N.Y.). The protein was immobilized on a microtiter plate by incubation in 50 mM NaHCO3, pH 9.0 at 4° C. overnight. Antibody A46-B/B10 (0.02 mg/mL) and the competitors (0.078-5 mM) were incubated in TBST (50 mM Tris-HCl pH 7.4, 150 mM NaCl, 0.1% Tween-20) at 4° C. overnight and then transferred to the microtiter plate. The wells were washed with TBST and incubated with a goat anti-mouse secondary antibody conjugated to alkaline phosphatase (1:500) at rt for 1 h. The wells were washed with TBST and developed with p-nitrophenyl phosphate. Inhibition curves were generated using PRISM (GraphPAD Software, Inc.).
Synapsin Ia and Ib from bovine brain were immobilized on a microtiter plate, and binding of antibody A46-B/B10 to synapsin was assessed in the presence of varying concentrations of the competitors (see FIG. 12A for structures of the competitor molecules). […] (Haselhorst, T., et al., J. Am. Chem. Soc., 123:10705-10714 (2001))

[6] = system: synapsin I-transfected HeLa cells; test: Synapsin degradation with inhibitors of protein degradation with or without 2-dGal; format: cell-based; conditions: with 2-dGal, 15 h
Procedure: as §1
To investigate the molecular mechanisms responsible for synapsin degradation, cells expressing synapsin were treated with various inhibitors of protein degradation in the presence or absence of 2-dGal. Specifically, the lysosomal inhibitors bafilomycin A1 and ammonium chloride, the proteasome inhibitor MG132, and two inhibitors of the calcium-dependent protease calpain, were used.

[7] = system: hippocampal neurons; test: Binding of biotinylated probe to cultured hippocampal neurons (streptavidin-AlexaFluor 488 imaging); format: cell-based, rat; conditions: 3 mM, 10 μM PAO
Procedure: Hippocampal neurons were cultured using a procedure modified from Goslin and Banker, in Culturing Nerve Cells, Banker, G., Goslin, K., Eds., pp. 251-281, MIT Press: Cambridge, Mass. 1991. Briefly, the hippocampi of embryonic day 18 (E18) rats were dissected and transferred to 4.5 mL of ice-cold Calcium and Magnesium Free-Hank's Balanced Salt Solution (CMF-HBSS). Trypsin (2.5%, no EDTA) was added to 5 mL, and the tissue was incubated for 15 min at 37° C. The trypsin solution was removed and the tissue sample washed three times with 5 mL of CMF-HBSS. Cells were then dissociated from the tissue in 1 mL of CMF-HBSS by passing through a P1000 pipet tip twenty times. The cells were counted, diluted into Minimal Eagle's Medium (MEM) plus 10% fetal bovine serum, and seeded on poly-DL-ornithine-coated glass coverslips (Carolina Biological) at a density of 75 cells/mm2 (100 μL/coverslip) for 30 min. After this time, 500 μL of supplemented Neurobasal medium (47.5 mL Neurobasal medium without Lglutamine; 0.5 mL L-glutamine (200 mM); 0.5 mL penicillin/streptomycin (10,000 U/mL); 0.5 mL antibiotic-antimycotic (100× stock), 1.0 mL B-27 serum-free supplement (50× stock); 50 μL of 0.5 M kynurenic acid in 1 N NaOH) was added to each coverslip. The use of kynurenic acid to block glutamate receptor ion channels and enhance neuronal health and survival is standard protocol for neuronal cultures. Id. The cultures were maintained in 5% CO2 at 37° C. in supplemental Neurobasal medium.
After 23 days in culture, the medium was replaced, and neurons were treated with the endocytosis inhibitor phenylarsine oxide (PAO; 4 μL in DMSO, final concentration 10 μM) (Nouel, D., et al., J. Neurosci. 17:1795-1803 (1997)) and either compound III (24 μL in PBS, final concentration 3 mM), or biotin (24 μL in PBS, final concentration 3 mM), in supplemented Neurobasal medium (400 μL final volume) for 1 h at 37° C., 5% CO2. After 1 h, neurons were rinsed 2 times with PBS, fixed in 4% paraformaldehyde for 20 min at rt, washed 2 times with PBS, permeabilized in 0.3% Triton X-100 for 5 min at rt, and washed 2 times with PBS. Non-specific binding was blocked with 3% BSA for 1 h at rt and then rinsed one time with PBS. Compound III was detected with streptavidin conjugated to AlexaFluor 488 (1:200, Molecular Probes). Dye-conjugated streptavidin was added in 3% BSA for 1 h at 37° C. and the excess reagent washed off 5 times with PBS. Coverslips were then mounted onto slides with Vectashield, sealed, and imaged using confocal laser microscopy. Results can be seen in FIG. 2.
De-lipidation was performed on some samples following the protocol of Yavin, E. et al., J. Neurosci. Res. 9:229-237 (1983). Briefly, after 23 days in culture, cells were rinsed once with PBS then exposed to MeOH/CHCl3 (½ by vol.) for 15 min at −80° C. This procedure fixes the cells to the coverslip and extracts cellular lipids. After removing the MeOH/CHCl3 mixture, coverslips were dried at rt then incubated with 3% BSA for 1 hr at rt. After one rinse with PBS, neurons were treated with PAO and the procedure described above was followed.

2′fucosyllactose
effect on LTP [1]: enhance LTP

O=C[C@H](O)C[C@@H](O)[C@H](O)CO [Compound 3-dGal, 3-Deoxy-D-Galactose]
effect on neurite outgrowth ([2]; 15 mM for 2 days): no impact on neurite outgrowth

C[C@@H](O)[C@H](O)[C@H](O)[C@@H](O)C=O [Compound 6-dGal, 6-deoxy-D-galactose]
fucosylation level of synapsin [3]: no effect | level of synapsin protein [3]: no effect | expression of synapsin I [4]: no effect

O=C[C@H](O)[C@@H](O)[C@H](O)[C@H](O)CO [D-glucose]
inhibition of antibody binding to synapsin Ia and Ib [5]: did not compete

CCO[C@@H]1O[C@H](CO)[C@H](O)[C@H](O)[C@H]1O[C@@H]1O[C@@H](C)[C@@H](O)[C@@H](O)[C@@H]1O [Fucα(1-2)Gal-β-OEt, Ethyl O-(α-L-fucopyranosyl)-(1-2)-β-D-galactopyranoside]
inhibition of antibody binding to synapsin Ia and Ib [5]: selectively inhibited

O=C[C@H](O)[C@@H](O)[C@@H](O)[C@H](O)CO [Gal, D-Galactose]
rescue of 2-dGal effects [2]: rescued | rescue of 2-dGal effects ([2]; listed as D-galactose): regeneration of the neuronal processes | inhibition of antibody binding to synapsin Ia and Ib [5]: did not compete

CCOC1OC(C)C(O)C(O)C1O [L-Fuc-α-OEt, ethyl α/β-L-fucopyranoside]
IC50 (compared in words) [5]: comparable to that of the disaccharide Fucα(1-2)Gal-β-OEt | inhibition of antibody binding to synapsin Ia and Ib [5]: effective at inhibiting antibody binding

C[C@H](O)[C@@H](O)[C@@H](O)[C@H](O)C=O [L-fucose]
IC50 (compared in words) [5]: comparable to that of the disaccharide Fucα(1-2)Gal-β-OEt | inhibition of antibody binding to synapsin Ia and Ib [5]: effective at inhibiting antibody binding | effect on LTP [1]: enhance LTP

CC(C)C[C@@H](C=O)NC(=O)[C@H](CC(C)C)NC(=O)[C@H](CC(C)C)NC(=O)OCc1ccccc1 [MG132] (Cbz-Leu-Leu-Leu-aldehyde)
rescue of synapsin from 2-dGal-induced degradation [6]: no effect on synapsin degradation

CC(=O)N[C@H]1C(O)O[C@H](CO)[C@@H](O)[C@@H]1O (stereo partly drawn) [N-acetyl-D-glucosamine]
inhibition of antibody binding to synapsin Ia and Ib [5]: did not compete

Cl.N [ammonium chloride]
rescue of synapsin from 2-dGal-induced degradation [6]: no effect on synapsin degradation

CO/C1=C\C(C)=C\[C@@H](C)[C@@H](O)[C@@H](C)C/C(C)=C/C=C/[C@H](OC)[C@@H]([C@@H](C)[C@@H](O)[C@H](C)[C@@]2(O)C[C@@H](O)[C@H](C)[C@@H](C(C)C)O2)OC1=O [bafilomycin A1]
rescue of synapsin from 2-dGal-induced degradation [6]: no effect on synapsin degradation

O=C(O)CCCC[C@@H]1SC[C@@H]2NC(=O)N[C@@H]21 [biotin]
labeling of neurons after de-lipidation ([7]; neurons de-lipidated with MeOH/CHCl3): minor binding of the biotin alone to the cell body but not the neurites | binding to hippocampal neurons ([7]; 1 h, E18 neurons 23 days in vitro): this binding is not between the biotin moieties and the neuron

CCCC[C@@H](C=O)NC(=O)[C@H](CC(C)C)NC(=O)OCc1ccccc1 [calpeptin]
rescue of synapsin from 2-dGal-induced degradation [6]: rescued the effects of 2-dGal
